In ChEMBL document CHEMBL1201862, “PubChem BioAssay data set” (2004):
The source made the active and inactive calls.

Columns and labels:
[1] = target: Heat shock protein HSP 90-alpha (Homo sapiens, UniProt P07900); type: functional, organism-based
Vero = test: cells; type: functional; settings: Chlorocebus sabaeus
[2] = Fluorescence-based cell-based high throughput dose response assay for inhibitors of the interaction of nucleotide-binding oligomerization domain containing 2 (NOD2) and the receptor-interacting serine-threonine kinase 2 (RIPK2).; type: functional; settings: Homo sapiens
Beta Lactamase = Beta Lactamase (Pseudomonas aeruginosa, UniProt Q932Y6); test: BLA reporter interference, concentration series – BLA reporter cells, FRET fluorescence, artefact control for NOD2-RIPK2 interaction inhibitor project, dose response (AID 651552); type: functional, cell-based
Paired box protein Pax-8 = Paired box protein Pax-8 (Homo sapiens, UniProt Q06710); test: PAX8 transcriptional activity inhibition in RMG-I – RMG-I cells, luciferase, cherry-pick, dose response (AID 687027); type: functional, cell-based;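 further: luciferase reporter driven by Pax8 target thyroperoxidase promoter measured by SteadyGlo luminescence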
[3] = general cell-killing toxicity readout – plate reader, dry powder samples, cytotoxicity control for PAX8 inhibitor project, dose response (AID 743021); type: functional, cell-based
[4] = target: T1, Small ubiquitin-related modifier 1 (Homo sapiens, UniProt P63165); test: SUMO1 protein interaction blockers, potency – biochemical, fluorescence polarization, uHTS hits, dose response (AID 624382); type: functional; settings: read-out: IC50_Mean
[5] = target: T1, Small ubiquitin-related modifier 1; test: SUMO1 protein-protein binding blockers, potency – biochemical, FRET, dose response (AID 624383); type: functional; settings: read-out: IC50_Mean
[6] = activation of miR-122 Renilla sensor silencing – cell-based, Huh7 psiCHECK-miR122, Renilla luciferase, cherry-picked, dose response (AID 651956); type: functional;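 further: huh7 hepatoma cells stably carrying a psiCHECK-2 miR-122 sensor plasmid; renilla luciferase signal reporting endogenous miR-122 activity after 48 h compound exposure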
[7] = target: T2, Replicative DNA helicase DnaB (Mycobacterium tuberculosis, UniProt P9WMR3); test: DnaB intein splicing inhibitors, dose response, biochemical, cell-free fluorescence (AID 449749); type: functional
T2 sequence (P9WMR3 whole entry): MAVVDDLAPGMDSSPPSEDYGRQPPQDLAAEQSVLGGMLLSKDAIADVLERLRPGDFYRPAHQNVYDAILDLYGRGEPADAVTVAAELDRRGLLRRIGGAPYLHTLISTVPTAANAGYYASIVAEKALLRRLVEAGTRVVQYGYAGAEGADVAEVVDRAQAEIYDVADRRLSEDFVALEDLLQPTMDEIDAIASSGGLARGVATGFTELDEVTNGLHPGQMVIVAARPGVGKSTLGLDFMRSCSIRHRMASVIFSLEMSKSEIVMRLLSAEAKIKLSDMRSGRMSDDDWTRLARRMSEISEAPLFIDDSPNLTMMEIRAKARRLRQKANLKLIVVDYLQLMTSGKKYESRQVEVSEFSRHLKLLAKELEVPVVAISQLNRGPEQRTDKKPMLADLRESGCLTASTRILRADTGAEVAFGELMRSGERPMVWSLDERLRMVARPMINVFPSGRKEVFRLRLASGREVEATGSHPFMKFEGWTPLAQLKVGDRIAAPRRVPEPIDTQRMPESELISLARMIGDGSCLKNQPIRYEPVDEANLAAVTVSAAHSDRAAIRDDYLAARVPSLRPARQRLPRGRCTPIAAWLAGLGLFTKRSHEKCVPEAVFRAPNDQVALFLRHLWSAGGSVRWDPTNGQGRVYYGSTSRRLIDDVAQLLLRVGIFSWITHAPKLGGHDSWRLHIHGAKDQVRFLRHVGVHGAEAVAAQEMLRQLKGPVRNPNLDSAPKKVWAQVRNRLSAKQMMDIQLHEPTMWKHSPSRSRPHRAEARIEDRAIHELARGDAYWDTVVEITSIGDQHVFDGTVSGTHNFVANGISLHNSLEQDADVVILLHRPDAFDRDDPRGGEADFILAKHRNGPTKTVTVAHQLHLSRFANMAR

Protein RecA = target: T3, Protein RecA (Mycobacterium tuberculosis, UniProt P9WHJ3); test: Fluorescence Cell-Free Homogeneous Dose Retest to Identify Inhibitors of RecA-Intein Splicing Activity. [Related pubchem assays (depositor defined):AID2097, AID2223, AID489010, AID492950]; type: functional
T3 sequence (P9WHJ3 whole entry): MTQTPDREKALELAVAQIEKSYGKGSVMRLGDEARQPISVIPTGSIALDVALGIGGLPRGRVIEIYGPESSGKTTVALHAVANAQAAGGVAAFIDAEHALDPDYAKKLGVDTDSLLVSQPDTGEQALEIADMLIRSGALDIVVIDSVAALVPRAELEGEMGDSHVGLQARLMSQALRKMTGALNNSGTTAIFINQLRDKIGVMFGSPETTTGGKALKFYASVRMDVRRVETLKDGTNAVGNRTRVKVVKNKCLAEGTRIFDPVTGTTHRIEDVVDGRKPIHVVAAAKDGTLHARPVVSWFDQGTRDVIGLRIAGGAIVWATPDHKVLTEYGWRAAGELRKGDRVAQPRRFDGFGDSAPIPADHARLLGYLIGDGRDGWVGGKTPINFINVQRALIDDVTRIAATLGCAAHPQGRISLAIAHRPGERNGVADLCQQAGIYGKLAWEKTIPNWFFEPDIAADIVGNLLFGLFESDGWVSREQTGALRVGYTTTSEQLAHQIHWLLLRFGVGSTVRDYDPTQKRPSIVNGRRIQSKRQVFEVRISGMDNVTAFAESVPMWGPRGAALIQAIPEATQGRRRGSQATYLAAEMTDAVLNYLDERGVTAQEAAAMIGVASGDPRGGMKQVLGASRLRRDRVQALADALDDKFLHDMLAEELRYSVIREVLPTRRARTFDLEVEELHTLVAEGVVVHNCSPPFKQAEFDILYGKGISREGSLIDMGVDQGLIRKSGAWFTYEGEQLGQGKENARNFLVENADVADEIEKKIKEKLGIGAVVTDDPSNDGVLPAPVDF

[8] = target: T4, Sentrin-specific protease 8 (Homo sapiens, UniProt Q96LD8); type: functional
T4 sequence (Q96LD8 whole entry): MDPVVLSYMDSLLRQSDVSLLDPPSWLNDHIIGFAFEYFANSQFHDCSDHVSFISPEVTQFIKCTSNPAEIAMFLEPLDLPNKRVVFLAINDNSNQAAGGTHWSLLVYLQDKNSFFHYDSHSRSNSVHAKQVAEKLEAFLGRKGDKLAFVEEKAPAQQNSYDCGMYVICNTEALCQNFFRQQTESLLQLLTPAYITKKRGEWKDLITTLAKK

T1 sequence (P63165 whole entry): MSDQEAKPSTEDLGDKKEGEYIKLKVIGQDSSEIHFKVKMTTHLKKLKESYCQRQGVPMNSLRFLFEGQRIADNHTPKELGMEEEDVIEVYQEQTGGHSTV
Paired box protein Pax-8, sequence (Q06710 whole entry): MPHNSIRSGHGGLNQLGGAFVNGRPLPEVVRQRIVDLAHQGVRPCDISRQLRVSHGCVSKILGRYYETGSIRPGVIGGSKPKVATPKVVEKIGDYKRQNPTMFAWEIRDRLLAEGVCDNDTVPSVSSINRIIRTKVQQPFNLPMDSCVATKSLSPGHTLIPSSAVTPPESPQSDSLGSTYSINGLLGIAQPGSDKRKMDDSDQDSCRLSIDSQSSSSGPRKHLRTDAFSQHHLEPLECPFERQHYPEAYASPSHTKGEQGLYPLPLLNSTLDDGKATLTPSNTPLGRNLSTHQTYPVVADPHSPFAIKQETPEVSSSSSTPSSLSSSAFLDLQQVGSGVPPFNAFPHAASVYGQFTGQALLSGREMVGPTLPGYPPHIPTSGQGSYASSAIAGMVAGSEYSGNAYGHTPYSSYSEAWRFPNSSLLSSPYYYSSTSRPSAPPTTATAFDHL
Beta Lactamase, sequence (Q932Y6 whole entry): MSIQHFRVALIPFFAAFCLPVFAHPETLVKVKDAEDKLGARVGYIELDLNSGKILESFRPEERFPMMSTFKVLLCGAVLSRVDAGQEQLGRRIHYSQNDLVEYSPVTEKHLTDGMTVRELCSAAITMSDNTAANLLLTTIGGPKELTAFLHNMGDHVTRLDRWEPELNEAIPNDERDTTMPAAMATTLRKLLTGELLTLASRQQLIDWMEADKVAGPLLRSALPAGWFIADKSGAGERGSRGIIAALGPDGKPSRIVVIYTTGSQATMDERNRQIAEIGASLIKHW

Q: With `COC(=O)C1=C(C(=O)OC)C2OC1c1cc3ccccc3cc12` as the compound, how does the AC50 [1] read?
A: 1.59 µM (active)

Q: And the CC50 (Vero)?
A: > 25 µM (active)

Q: And the IC50 [2]?
A: 1.63 µM (active)

Q: And the IC50 (Beta Lactamase)?
A: 10.1 µM (inactive)

Q: And the AC50 (Paired box protein Pax-8)?
A: 5.41 µM (active)

Q: What about the AC50 [3] of the same compound?
A: 23 µM (active)

Q: With `CC(=O)c1cccc(NC(=O)c2cccc3c(-c4cccc(C(N)=O)c4)coc23)c1` as the compound, how does the IC50 [4] read?
A: > 66.6 µM (inactive)

Q: What about the IC50 [5] of the same compound?
A: 20.4 µM (inactive)

Q: Which AC50 [6] does the source give for `COc1cccc(NC(=O)N(C)C[C@@H]2Oc3ncc(C#Cc4ccncc4)cc3C(=O)N([C@@H](C)CO)C[C@H]2C)c1` here?
A: 36.1 µM (active)

Q: For `COc1ccc(-c2cc(=O)n(CCC#N)[nH]2)cc1`, which AC50 [7] is on record?
A: 2.05 µM (active)

Q: And the EC50 (Protein RecA)?
A: 1.02 µM (active)

Q: What about the IC50 [8] of the same compound?
A: 50.8 µM (active)
